The term IC50 denotes the point on the concentration scale where inhibition reaches its midpoint.

The source of these data is patent US20030100550A1, “Carboxamide diazepin derivatives, preparation method, use as medicines, pharmaceutical compositions and use thereof” (priority 2002, published 2003).

Molecules are shown by their SMILES.

Assay type in all cases: biochemical
One experiment has as its target T1, Cathepsin K (Homo sapiens, UniProt P43235).
T1 sequence (P43235 115-329): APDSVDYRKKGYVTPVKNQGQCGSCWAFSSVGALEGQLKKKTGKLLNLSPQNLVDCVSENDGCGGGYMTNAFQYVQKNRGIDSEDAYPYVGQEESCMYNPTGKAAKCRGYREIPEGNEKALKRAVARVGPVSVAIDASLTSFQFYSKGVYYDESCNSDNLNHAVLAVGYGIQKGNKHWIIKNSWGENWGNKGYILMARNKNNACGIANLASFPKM
The experiment is described as follows: Study of Cathepsin K inhibition (fluorescence, Z-Val-arg-AMC). The following applies: substrate Z-Val-arg-AMC 20 μM, enzyme 5 ng/ml, 2H at ambient temperature; read-out: Cathepsin K IC50. In short, it runs like this:
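Recombinant cathepsin K (5 ng/ml final) with 20 μM Z-Val-Arg-AMC in 100 mM sodium acetate, 5 mM EDTA, DTT, pH 5.5; compounds screened at 10 μM in duplicate, 2 h at ambient temperature, fluorescence ex 390/em 460 nm. % inhibition vs plate 0/100% controls; actives retested 50–0.5 μM for IC50.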

For the next experiment, the target named is T2, Cathepsin B (Homo sapiens, UniProt P07858).
T2 construct: purchased Calbiochem
The experiment is described as follows: Study of Cathepsin B inhibition (fluorescence, Z-arg-arg-AMC). The settings on record: substrate Z-arg-arg-AMC 20 μM, enzyme 16 ng/ml, 1 hour at ambient temperature. In a few lines:
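Cathepsin B (16 ng/ml final) with 20 μM Z-Arg-Arg-AMC in 100 mM sodium acetate, 5 mM EDTA, DTT, pH 5.5, incubated 1 h at ambient temperature; fluorescence at ex 390/em 460 nm. Compounds screened at 10 μM, % inhibition against plate 0/100% controls; actives retested 50 to 0.5 μM for IC50.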

Another experiment deals with T3, Papain (Carica papaya, UniProt P00784).
T3 construct: purchased Sigma
T3 sequence (P00784 134-345): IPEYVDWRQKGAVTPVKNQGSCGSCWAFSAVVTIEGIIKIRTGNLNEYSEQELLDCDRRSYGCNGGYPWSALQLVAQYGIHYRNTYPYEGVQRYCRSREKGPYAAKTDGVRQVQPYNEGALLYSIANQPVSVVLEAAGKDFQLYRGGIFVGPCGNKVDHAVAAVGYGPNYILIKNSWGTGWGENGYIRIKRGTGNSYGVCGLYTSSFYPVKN
The experiment can be described thus: Study of Papain inhibition (fluorescence). The settings on record: enzyme 20 ng/ml, 30 minutes at ambient temperature. As for the experimental part:
The products to be tested (10 mM) are diluted to […] in DMSO and distributed into Nunc polystyrene 96 well plates at a rate of 2 μl per well. Column 12 of the plate is reserved for the controls and therefore receives […] of DMSO (without products) per well. The plates are stored at −80° C. and thawed on the day of the experiment.
The products are diluted to 50 μM by adding 38 μl of reaction buffer: sodium acetate 100 mM, EDTA 5 mM, DTT […] pH 5.5. The addition as well as all the operations by pipette are carried out with a CybiWell 96 tip pipette. After mixing the solutions, each product is transferred into 2 wells (duplicates) of a Greiner black 384 well plate at a rate of 10 μl per well. Two 96-well plates can therefore be tested in a 384-well plate.
A solution of substrate at 50 μM, Z-Val-arg-AMC (Calbiochem), is prepared in the reaction buffer. The substrate, is then distributed into all the wells of the 384-well plate (20 μl per well).
A solution of Cathepsin K at 12.5 ng/ml is prepared in the reaction buffer and distributed into all the wells of the 384-well plate (20 μl per well) except for the 16 wells serving as 100% inhibition controls (column 23 and 24, lines I to P) which receive 20 μl of enzyme-free buffer.
The plates are then incubated 2H at ambient temperature, then read on Fluoroskan (Labsystems): excitation 390 nm; emission 460 nm
The final concentrations of each of the reagents are: products 10 μM, substrate 20 μM, enzyme 5 ng/ml.
The % inhibition for each of the products is calculated by using points at 0 and 100% inhibition of each plate as references. The products presenting a significant inhibition are then retested on a range of concentrations from 50 to 0.5 μM to determine an IC50.
Study of Papain Inhibition:
Protocol identical to that of Cathepsin K except for:
Papain (Sigma), solution at 50 ng/ml, final concentration 20 ng/ml
Incubation for 30 minutes at ambient temperature

Turning to `CC(C)[C@H](NC(=O)[C@@H]1CCCN2C(=O)CC[C@H](NC(=O)Nc3ccc(Oc4ccccc4)cc3)C(=O)N12)C(=O)CSc1nc2ccccc2s1` [Example 390], the values for the IC50 on Cathepsin K, on Cathepsin B and against Papain were 20 µM, 19 µM and 6 µM, respectively.
